{"source": "patent US20240408163A1", "about": "“CAPILLARY NUTRITIONAL COMPLEX” (NATURAL FOLIC, S.L., priority 2023, published 2024)", "origin": "cited, not measured here"}
{"smiles": "CC1=C(/C=C/C(C)=C/C=C/C(C)=C/C=C/C=C(C)/C=C/C=C(C)/C=C/C2=C(C)C(=O)[C@@H](O)CC2(C)C)C(C)(C)C[C@H](O)C1=O", "note": "[Astaxanthin]", "values": [{"measurement": "antioxidant power relative to coenzyme Q10", "setting": "times more powerful than coenzyme Q10", "value": 800, "unit": "times"}, {"measurement": "antioxidant power relative to vitamin C", "setting": "times more powerful than vitamin C", "value": 6000, "unit": "times"}]}
